Measurements taken from ChEMBL document CHEMBL3608308, “Design, synthesis and antiproliferative activity of novel heterobivalent hybrids based on imidazo[2,1-b][1,3,4]thiadiazole and imidazo[2,1-b][1,3]thiazole scaffolds” (Eur J Med Chem, 2015).
pIC50: −log10 of the molar value.

Assays:
Assay type in all cases: functional
CCRF-CEM = assay: Antiproliferative activity against human CEM cells assessed as inhibition of cell proliferation incubated for 3 days by Coulter counter based assay; conditions: 72 h
HeLa = assay: Antiproliferative activity against human HeLa cells assessed as inhibition of cell proliferation incubated for 4 days by Coulter counter based assay; conditions: 96 h
L1210 = assay: Antiproliferative activity against mouse L1210 cells assessed as inhibition of cell proliferation incubated for 2 days by Coulter counter based assay; conditions: L1210, 48 h
FM3A = assay: Antiproliferative activity against mouse FM3A cells assessed as inhibition of cell proliferation incubated for 2 days by Coulter counter based assay; conditions: 48 h

**Q.** What does the source list for `C=C(Br)C(=O)Nc1cccc(-c2cn3nc(CCc4ccccc4)sc3n2)c1`?
**A.** pIC50 (CCRF-CEM): 5.38; pIC50 (HeLa): 5.48; pIC50 (L1210): 5.66; pIC50 (FM3A): 5.59

**Q.** `Nc1cccc(-c2cn3nc(Cc4ccc(Cl)cc4)sc3n2)c1` was tested. Which pIC50 (CCRF-CEM) did it give?
**A.** 4.38

**Q.** And the pIC50 (HeLa)?
**A.** 4.60

**Q.** And the pIC50 (L1210)?
**A.** 4.80

**Q.** And the pIC50 (FM3A)?
**A.** 5.22

**Q.** Which results are given for `Nc1cccc(-c2cn3c(-c4ccc(Cl)cc4)csc3n2)c1`?
**A.** pIC50 (CCRF-CEM): 4.68; pIC50 (HeLa): 4.77; pIC50 (L1210): 4.66; pIC50 (FM3A): 4.96

**Q.** What does the source list for `C=C(Br)C(=O)Nc1cccc(-c2cn3nc(Cc4cccc(OC)c4)sc3n2)c1`?
**A.** pIC50 (CCRF-CEM): 5.51; pIC50 (HeLa): 5.60; pIC50 (L1210): 5.70; pIC50 (FM3A): 5.96

**Q.** With `COc1cccc(-c2nn3cc(-c4cccc(N)c4)nc3s2)c1` as the compound, how does the pIC50 (CCRF-CEM) read?
**A.** < 3.60

**Q.** What about the pIC50 (HeLa) of the same compound?
**A.** 3.64

**Q.** What about the pIC50 (L1210) of the same compound?
**A.** < 3.60

**Q.** And the pIC50 (FM3A)?
**A.** 4.54

**Q.** `C=C(Br)C(=O)Nc1cccc(-c2cn3nc(-c4ccc(C)cc4)sc3n2)c1` was tested. Which pIC50 (CCRF-CEM) did it give?
**A.** 5.77

**Q.** And the pIC50 (HeLa)?
**A.** 5.70

**Q.** And the pIC50 (L1210)?
**A.** 6.04

**Q.** What about the pIC50 (FM3A) of the same compound?
**A.** 5.92

**Q.** What does the source list for `Nc1cccc(-c2cn3c(-c4ccccc4)csc3n2)c1`?
**A.** pIC50 (CCRF-CEM): 4.54; pIC50 (HeLa): 4.22; pIC50 (L1210): 4.07; pIC50 (FM3A): 4.47

**Q.** With `Nc1cccc(-c2cn3nc(CCc4ccccc4)sc3n2)c1` as the compound, how does the pIC50 (CCRF-CEM) read?
**A.** 4.52

**Q.** And the pIC50 (HeLa)?
**A.** 3.62

**Q.** And the pIC50 (L1210)?
**A.** 4.51

**Q.** What about the pIC50 (FM3A) of the same compound?
**A.** 4.54

**Q.** With `C=C(Br)C(=O)Nc1cccc(-c2cn3nc(Cc4ccc(Cl)cc4)sc3n2)c1` as the compound, how does the pIC50 (CCRF-CEM) read?
**A.** 5.48

**Q.** And the pIC50 (HeLa)?
**A.** 5.57

**Q.** What about the pIC50 (L1210) of the same compound?
**A.** 5.64

**Q.** What about the pIC50 (FM3A) of the same compound?
**A.** 5.96

**Q.** With `COc1ccc(-c2nn3cc(-c4cccc(N)c4)nc3s2)cc1OC` as the compound, how does the pIC50 (CCRF-CEM) read?
**A.** 4.85

**Q.** And the pIC50 (HeLa)?
**A.** 4.59

**Q.** And the pIC50 (L1210)?
**A.** 4.80

**Q.** And the pIC50 (FM3A)?
**A.** 4.89

**Q.** How did the pIC50 (CCRF-CEM) turn out when `C=C(Br)C(=O)Nc1cccc(-c2cn3nc(-c4ccc(Cl)cc4)sc3n2)c1` was run?
**A.** 5.49

**Q.** What about the pIC50 (HeLa) of the same compound?
**A.** 5.52

**Q.** And the pIC50 (L1210)?
**A.** 5.85

**Q.** What about the pIC50 (FM3A) of the same compound?
**A.** 5.70

**Q.** `CCOc1ccc(-c2nn3cc(-c4cccc(N)c4)nc3s2)cc1` was tested. Which pIC50 (CCRF-CEM) did it give?
**A.** < 3.60

**Q.** And the pIC50 (HeLa)?
**A.** 4.03

**Q.** And the pIC50 (L1210)?
**A.** 3.81

**Q.** And the pIC50 (FM3A)?
**A.** ≤ 3.60

**Q.** With `C=C(Br)C(=O)Nc1cccc(-c2cn3nc(-c4cccc(OC)c4)sc3n2)c1` as the compound, how does the pIC50 (CCRF-CEM) read?
**A.** 5.92

**Q.** What about the pIC50 (HeLa) of the same compound?
**A.** 5.96

**Q.** And the pIC50 (L1210)?
**A.** 6.24

**Q.** And the pIC50 (FM3A)?
**A.** 6.30

**Q.** What does the source list for `C=C(Br)C(=O)Nc1cccc(-c2cn3nc(Cc4ccc(OC)cc4)sc3n2)c1`?
**A.** pIC50 (CCRF-CEM): 5.64; pIC50 (HeLa): 5.64; pIC50 (L1210): 5.85; pIC50 (FM3A): 6.07

**Q.** With `COc1ccc(-c2csc3nc(-c4cccc(N)c4)cn23)cc1` as the compound, how does the pIC50 (CCRF-CEM) read?
**A.** 5.21

**Q.** What about the pIC50 (HeLa) of the same compound?
**A.** 4.72

**Q.** What about the pIC50 (L1210) of the same compound?
**A.** 4.72

**Q.** And the pIC50 (FM3A)?
**A.** 4.96

**Q.** How did the pIC50 (CCRF-CEM) turn out when `C=C(Br)C(=O)Nc1cccc(-c2cn3nc(-c4ccccc4)sc3n2)c1` was run?
**A.** 6.02

**Q.** And the pIC50 (HeLa)?
**A.** 5.85

**Q.** What about the pIC50 (L1210) of the same compound?
**A.** 6.22

**Q.** And the pIC50 (FM3A)?
**A.** 6.05

**Q.** With `C=C(Br)C(=O)Nc1cccc(-c2cn3nc(-c4ccc(OC)cc4)sc3n2)c1` as the compound, how does the pIC50 (CCRF-CEM) read?
**A.** 5.92

**Q.** And the pIC50 (HeLa)?
**A.** 5.64

**Q.** And the pIC50 (L1210)?
**A.** 6.03

**Q.** And the pIC50 (FM3A)?
**A.** 6.05
